Results on 26 compounds are retold here after patent publication US20240383891A1, “BENZIMIDAZOLE AND RELATED ANALOGS FOR INHIBITING YAP/TAZ-TEAD” (SpringWorks Therapeutics, Inc., priority 2023, published 2024).

Broadly, the IC50 is the concentration that gives 50% inhibition. Read a low IC50 as greater potency in that assay. As a reminder, the EC50 is the midpoint of the concentration-response curve.

Common to all, as to type: cell-based
For assay [1], the system named is YAP/TAZ-TEAD transcription. Put plainly: reporter gene assay for measuring the inhibition of YAP/TAZ-TEAD transcription (TEAD-responsive element luciferase reporter in Hek293T cells). The note with it: Homo sapiens, HEK-293T; Hek293T cells transiently transfected with TEAD-responsive element luciferase reporter, 24 hours incubation. As for the experimental part: Example 21: Activity of compounds of the disclosure in a reporter gene assay for measuring the inhibition of YAP/TAZ-TEAD transcription Hek293T cells are cultured in DMEM supplemented with 10% fetal bovine serum, Sodium pyruvate, Sodium bicarbonate, L-glutamine. The cells are harvested and transiently transfected with TEAD-responsive element luciferase reporter. Transfected cells are plated in 384-well plate containing pre-diluted compounds. After 24 hours incubation at 37° C./5% CO2, assay plates were cooled to room temperature and levelled to an equal volume per well, prior to the addition of 25 uL luciferase substrate SteadyLite (Perkin Elmer)/well. The plate was shaken for 10 min at 600 rpm, centrifuged for 1 min at 500 rpm and measured with an Envision reader (PerkinElmer). The amount of relative light units produced by the TEAD reporter is used to calculate the percentage of inhibition. The percent of reporter inhibition was calculated in the presence of a positive control inhibitor (100% inhibition) versus a condition with the presence of the vehicle basal activity of the reporter (0% inhibition). The ability of a test compound to inhibit this activity was determined as: Percentage inhibition=[[…]((RLU determined in the presence of vehicle—RLU determined for sample with test compound present) divided by (RLU determined in the presence of vehicle—RLU determined for sample with positive control inhibitor))] *100.
The activities of example compounds tested are depicted in Table 3. The activity ranges A, B and C refer to IC50 values in the reporter gene assay as follows: “A”: IC50<1 μM; “B”: 1 μM≤IC50 10 μM and “C”: IC50>10 μM; NT=not tested.

The next assay concerns NCI-H226. Put plainly: mesothelioma cell line proliferation assay, NCI-H226. The note with it: Homo sapiens, 144 h; NCI-H226 mesothelioma cells, 6 days incubation, ATPlite cell viability. As for the experimental part: (§1) Mesothelioma cell lines, NCI-H226 and NCI-H2052 (both sourced from the ATCC cell culture collection) are plated in 96-well plates (Corning® 96 Well White Polystyrene Microplate clear flat bottom, white polystyrene (TC-Treated)), at 1500 cells/well in full medium (RPMI 1640 ATCC modification with L-glutamine, HEPES, Phenol Red, Sodium Pyruvate, High glucose, Low sodium bicarbonate and 10% fetal bovine serum). Cells are incubated overnight at 37° C. in an incubator with 5% CO2. Then compounds, dissolved in DMSO, are added in dose-response. Cells are incubated with compound dilutions for another 6 days at 37° C. in an incubator with 5% CO2. Cell viability is quantitated using the ATPlite kit (Perkin-Elmer) and the luminescence is read-out using an Envision instrument (Perkin-Elmer). The amount of relative light units produced using the ATPlite kit is used to calculate percent of inhibition. The activities of some example compounds are depicted in Table 4. The activity ranges A, B and C refer to EC50 values in the mesothelioma cell line proliferation assay as described as follows: “A”: EC50<1 μM; “B”: 1 μM s […] and “C”: EC50>10 μM; NT: not tested.

The subject of a further assay is NCI-H2052. The assay is described as follows: mesothelioma cell line proliferation assay, NCI-H2052. Particulars: Homo sapiens, 144 h; NCI-H2052 mesothelioma cells, 6 days incubation, ATPlite cell viability. As for the experimental part:
as §1
(In general: In ATP-based viability assays light output follows the ATP content of the culture.)

`O=C(O)[C@H]1C[C@H]1c1nc(-c2ccc(C(F)(F)F)cc2)c2ccccn12` (racemic) [Cpd. No. 018, cis-2-(1-(4-(trifluoromethyl)phenyl)imidazo[1,5-a]pyridin-3-yl)cyclopropane-1-carboxylic acid]: in assay [1], the concentration for half-maximal inhibition (IC50) is above 10000 nM.

In turn, `O=C(O)[C@@H]1C[C@H]1c1nc(-c2ccc(C(F)(F)F)cc2)c2ccccn12` (relative stereo) [Cpd. No. 012, trans-2-(1-(4-(trifluoromethyl)phenyl)imidazo[1,5-a]pyridin-3-yl)cyclopropane-1-carboxylic acid] showed an IC50 in assay [1] below 1000 nM.

In assay [1], `C=CC(=O)NCc1nc(-c2ccc(C(F)(F)F)cc2)n2ccccc12` [Cpd. No. 001, N-((3-(4-(trifluoromethyl)phenyl)imidazo[1,5-a]pyridin-1-yl)methyl)acrylamide] came in with an IC50 below 1000 nM. Also, the 50% effective concentration (EC50) in the assay on NCI-H226 and in the assay on NCI-H2052 was below 1000 nM throughout. Consider `C=CC(=O)NCc1nc(-c2ccc(C(F)(F)F)cc2)c2ccccn12` [Cpd. No. 002, N-((1-(4-(trifluoromethyl)phenyl)imidazo[1,5-a]pyridin-3-yl)methyl)acrylamide], for which the half-inhibitory concentration (IC50) in assay [1] was below 1000 nM. In addition, the EC50 in the assay with NCI-H226 and with NCI-H2052 was below 1000 nM in each case.

For `CCC(=O)NCc1nc(-c2ccc(C(F)(F)F)cc2)c2ccccn12` [Cpd. No. 003, N-((1-(4-(trifluoromethyl)phenyl)imidazo[1,5-a]pyridin-3-yl)methyl)propionamide], in assay [1], the concentration for half-maximal inhibition (IC50) is above 10000 nM. On the same count and under the same terms, for `CS(=O)(=O)NCc1nc(-c2ccc(C(F)(F)F)cc2)c2ccccn12` [Cpd. No. 004, N-((1-(4-(trifluoromethyl)phenyl)imidazo[1,5-a]pyridin-3-yl)methyl)methanesulfonamide] the value was above 10000 nM; for `CCC(=O)NCc1nc(-c2ccc(C(F)(F)F)cc2)n2ccccc12` [Cpd. No. 005, N-((3-(4-(trifluoromethyl)phenyl)imidazo[1,5-a]pyridin-1-yl)methyl)propionamide], above 10000 nM.

`CS(=O)(=O)NCc1nc(-c2ccc(C(F)(F)F)cc2)n2ccccc12` [Cpd. No. 006, N-((3-(4-(trifluoromethyl)phenyl)imidazo[1,5-a]pyridin-1-yl)methyl)methanesulfonamide] came in with a concentration for half-maximal inhibition (IC50) in assay [1] of 1000 to 10000 nM. On the same count and under the same terms, for `O=C(O)/C=C/c1nc(-c2ccc(C(F)(F)F)cc2)n2ccccc12` [Cpd. No. 007, (E)-3-(3-(4-(trifluoromethyl)phenyl)imidazo[1,5-a]pyridin-1-yl)acrylic acid] the value was below 1000 nM. For `O=C(O)/C=C/c1nc(-c2ccc(C(F)(F)F)cc2)c2ccccn12` [Cpd. No. 008, (E)-3-(1-(4-(trifluoromethyl)phenyl)imidazo[1,5-a]pyridin-3-yl)acrylic acid], the IC50 in assay [1] is below 1000 nM. For the same compound, the EC50 in the assay with NCI-H226 and in the assay on NCI-H2052 was below 1000 nM throughout. Compound `C=CC(=O)NCc1nc(-c2ccc(C(F)(F)F)cc2)n2cc(C(F)(F)F)ccc12` [Cpd. No. 009, N-((6-(trifluoromethyl)-3-(4-(trifluoromethyl)phenyl)imidazo[1,5-a]pyridin-1-yl)methyl)acrylamide] had an IC50 in assay [1] below 1000 nM. In addition, the half-maximal effective concentration (EC50) in the assay on NCI-H226 and in the assay with NCI-H2052 was below 1000 nM each time. Take `CC(=O)NCc1nc(-c2ccc(C(F)(F)F)cc2)n2cc(C(F)(F)F)ccc12` [Cpd. No. 010, N-((6-(trifluoromethyl)-3-(4-(trifluoromethyl)phenyl)imidazo[1,5-a]pyridin-1-yl)methyl)acetamide]: the IC50 in assay [1] was above 10000 nM.

In the case of `CS(=O)(=O)NCc1nc(-c2ccc(C(F)(F)F)cc2)n2cc(C(F)(F)F)ccc12` [Cpd. No. 011, N-((6-(trifluoromethyl)-3-(4-(trifluoromethyl)phenyl)imidazo[1,5-a]pyridin-1-yl)methyl)methanesulfonamide], the IC50 in assay [1] was above 10000 nM.

On to `O=Cc1ccc(-c2nc(-c3ccc(C(F)(F)F)cc3)c3ccccn23)cc1O` [Cpd. No. 013, 2-hydroxy-4-(1-(4-(trifluoromethyl)phenyl)imidazo[1,5-a]pyridin-3-yl)benzaldehyde], for which the half-inhibitory concentration (IC50) in assay [1] is below 1000 nM. Same read-out and setting: as for `O=C(O)C1CC(O)(c2nc(-c3ccc(C(F)(F)F)cc3)c3ccccn23)C1` (stereo not shown) [Cpd. No. 014, 3-hydroxy-3-(1-(4-(trifluoromethyl)phenyl)imidazo[1,5-a]pyridin-3-yl)cyclobutane-1-carboxylic acid], the figure is above 10000 nM.

`O=C(O)Cc1nc(-c2ccc(C(F)(F)F)cc2)c2ccccn12` [Cpd. No. 015, 2-(1-(4-(trifluoromethyl)phenyl)imidazo[1,5-a]pyridin-3-yl)acetic acid] returned an IC50 in assay [1] above 10000 nM. `O=C(O)C1CCN1c1nc(-c2ccc(C(F)(F)F)cc2)c2ccccn12` (stereo not shown) [Cpd. No. 016, 1-(1-(4-(trifluoromethyl)phenyl)imidazo[1,5-a]pyridin-3-yl)azetidine-2-carboxylic acid] came in with an IC50 in assay [1] above 10000 nM. Same read-out and setting: for `O=C(O)C1CN(c2nc(-c3ccc(C(F)(F)F)cc3)c3ccccn23)C1` [Cpd. No. 017, 1-(1-(4-(trifluoromethyl)phenyl)imidazo[1,5-a]pyridin-3-yl)azetidine-3-carboxylic acid] the value was above 10000 nM; for `O=C(O)[C@H]1C[C@@H](c2nc(-c3ccc(C(F)(F)F)cc3)c3ccccn32)C1` [Cpd. No. 019, cis-3-(1-(4-(trifluoromethyl)phenyl)imidazo[1,5-a]pyridin-3-yl)cyclobutane-1-carboxylic acid], above 10000 nM; for `O=C(O)[C@H]1C[C@H](c2nc(-c3ccc(C(F)(F)F)cc3)c3ccccn32)C1` [Cpd. No. 020, trans-3-(1-(4-(trifluoromethyl)phenyl)imidazo[1,5-a]pyridin-3-yl)cyclobutane-1-carboxylic acid], below 1000 nM.

Regarding `O=C(O)CNc1nc(-c2ccc(C(F)(F)F)cc2)c2ccccn12` [Cpd. No. 021, (1-(4-(trifluoromethyl)phenyl)imidazo[1,5-a]pyridin-3-yl)glycine], in assay [1], the half-maximal inhibitory concentration (IC50) is above 10000 nM. Same read-out and setting: for `O=C(O)CCc1nc(-c2ccc(C(F)(F)F)cc2)c2ccccn12` [Cpd. No. 023, 3-(1-(4-(trifluoromethyl)phenyl)imidazo[1,5-a]pyridin-3-yl)propanoic acid] the value was below 1000 nM. In turn, `CN(CC(=O)O)c1nc(-c2ccc(C(F)(F)F)cc2)c2ccccn12` [Cpd. No. 024, N-methyl-N-(1-(4-(trifluoromethyl)phenyl)imidazo[1,5-a]pyridin-3-yl)glycine] had an IC50 in assay [1] of 1000 to 10000 nM. Still for that read-out and setting: for `O=c1[nH]c(-c2nc(-c3ccc(C(F)(F)F)cc3)c3ccccn23)no1` [Cpd. No. 028, 3-(1-(4-(trifluoromethyl)phenyl)imidazo[1,5-a]pyridin-3-yl)-1,2,4-oxadiazol-5(4H)-one] the value was below 1000 nM; for `O=c1[nH]nc(-c2nc(-c3ccc(C(F)(F)F)cc3)c3ccccn23)[nH]1` [Cpd. No. 029, 5-(1-(4-(trifluoromethyl)phenyl)imidazo[1,5-a]pyridin-3-yl)-2,4-dihydro-3H-1,2,4-triazol-3-one], 1000 to 10000 nM.

In the case of `O=C1CC(c2nc(-c3ccc(C(F)(F)F)cc3)c3ccccn23)=NO1` [Cpd. No. 030, 3-(1-(4-(trifluoromethyl)phenyl)imidazo[1,5-a]pyridin-3-yl)isoxazol-5(4H)-one], in assay [1], the 50% inhibitory concentration (IC50) lay in the range of 1000 to 10000 nM.
